This is an account of results in patent publication US20030139391A1 (priority 2000, published 2003).

The experiment deals with patients. Description: ADAS-cog in earlier study with quicker titration. To be noted: for ADAS-cog: Actual Drug Mean (SE): raw mean. It is filed as in vivo, human. As for the experimental part:
An improvement in tolerability at this dose was seen, but this dose was suboptimal from an efficacy standpoint.
Statistical analysis of the results of the ADAS-cog score is shown below in Table 7. […] This indicated a significant improvement of the patients' cognitive function at this dose level. The treatment with 36 mg/day in this study was terminated at an early point and thus there was insufficient information for a well defined comparison with the placebo.

SMILES strings stand for the structures.

With `COc1ccc2c3c1O[C@H]1C[C@@H](O)C=C[C@@]31CCN(C)C2` [GAL, galantamine], for the setting “18 mg/day”, the “ADAS-cog: Mean estimate GAL-Placebo Difference” value is reported as −1.69; the “ADAS-cog: Z, measure of advantage of galantamine over placebo” value (“ADAS-cog: Z, measure … over placebo” for short) was determined as 9.9; the “ADAS-cog: Actual Drug Mean (SE)” value is recorded as 0.5 (0.70). Besides, for the setting “24 mg/day”, the “ADAS-cog: Mean estimate GAL-Placebo Difference” value is recorded as −3.34; the “ADAS-cog: Z, measure … over placebo” value was found to be 13.4; the “ADAS-cog: Actual Drug Mean (SE)” value is given as 0.7 (0.9). Also, where the note is “36 mg/day”, the “ADAS-cog: Mean estimate GAL-Placebo Difference” value is on record as −1.93; the “ADAS-cog: Z, measure … over placebo” value came out at 7.8; the “ADAS-cog: Actual Drug Mean (SE)” value is given as 1.1 (0.9).
